{
  "source": "patent US8329696B2",
  "about": "“Solid state forms of sitagliptin salts” (Teva Pharmaceuticals Industries Ltd., priority 2009, dated 2012)",
  "experiment": "Retest of solid form by PXRD after storage",
  "assay_type": "physicochemical",
  "conditions": "after 1 month storage",
  "description": "Unless recited otherwise, X-Ray powder diffraction data was obtained by using methods known in the art using a SCINTAG powder X-Ray diffractometer model X'TRA equipped with a solid-state detector. Copper radiation of 1.5418 Å was used. A round aluminum sample holder with zero background was used. The scanning parameters included: range: 2-40 degrees two-theta; scan mode: continuous scan; step size: 0.05 deg.; and a rate of 3 deg/min.\nThe product was isolated by vacuum filtration and dried at 40° C. for 16 hours to obtain STG lactate crystalline form L3.",
  "data": [
    {"smiles": "CC(O)C(=O)O.N[C@@H](CC(=O)N1CCn2c(nnc2C(F)(F)F)C1)Cc1cc(F)c(F)cc1F", "note": "[Form L3, Sitagliptin lactate]", "values": [
      {"measurement": "Polymorphic form found by PXRD after storage", "result": "transform to form L1"}
    ]}
  ]
}
